# “Also recorded” adds a separate entry of the source. Ends that are not written are not given here.
# T1: αβγENaC (Rattus norvegicus, UniProt P37089+P37090+P37091)
# T1 construct: expressed in transfected cells; host or cells: Xenopus laevis oocytes (cRNA injection)
# T1 sequence (P37089 1-698): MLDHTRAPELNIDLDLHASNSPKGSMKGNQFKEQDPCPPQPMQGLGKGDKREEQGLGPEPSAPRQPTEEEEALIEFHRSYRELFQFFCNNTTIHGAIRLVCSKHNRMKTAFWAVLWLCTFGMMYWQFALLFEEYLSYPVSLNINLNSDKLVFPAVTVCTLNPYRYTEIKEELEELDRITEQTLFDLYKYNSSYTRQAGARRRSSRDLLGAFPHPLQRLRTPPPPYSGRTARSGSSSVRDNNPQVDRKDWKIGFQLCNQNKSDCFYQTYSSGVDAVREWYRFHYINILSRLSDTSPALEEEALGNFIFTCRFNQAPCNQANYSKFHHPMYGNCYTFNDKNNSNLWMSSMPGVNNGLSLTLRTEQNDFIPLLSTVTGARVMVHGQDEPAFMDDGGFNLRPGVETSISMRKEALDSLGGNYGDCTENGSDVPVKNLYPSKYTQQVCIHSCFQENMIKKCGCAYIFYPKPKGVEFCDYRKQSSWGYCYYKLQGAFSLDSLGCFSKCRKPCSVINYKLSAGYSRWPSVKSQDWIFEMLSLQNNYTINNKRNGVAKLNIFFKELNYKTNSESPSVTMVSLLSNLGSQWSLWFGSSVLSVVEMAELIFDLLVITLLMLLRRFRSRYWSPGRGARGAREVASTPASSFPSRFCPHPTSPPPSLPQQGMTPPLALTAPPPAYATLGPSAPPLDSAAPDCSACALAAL
# T1 sequence (P37090 1-638): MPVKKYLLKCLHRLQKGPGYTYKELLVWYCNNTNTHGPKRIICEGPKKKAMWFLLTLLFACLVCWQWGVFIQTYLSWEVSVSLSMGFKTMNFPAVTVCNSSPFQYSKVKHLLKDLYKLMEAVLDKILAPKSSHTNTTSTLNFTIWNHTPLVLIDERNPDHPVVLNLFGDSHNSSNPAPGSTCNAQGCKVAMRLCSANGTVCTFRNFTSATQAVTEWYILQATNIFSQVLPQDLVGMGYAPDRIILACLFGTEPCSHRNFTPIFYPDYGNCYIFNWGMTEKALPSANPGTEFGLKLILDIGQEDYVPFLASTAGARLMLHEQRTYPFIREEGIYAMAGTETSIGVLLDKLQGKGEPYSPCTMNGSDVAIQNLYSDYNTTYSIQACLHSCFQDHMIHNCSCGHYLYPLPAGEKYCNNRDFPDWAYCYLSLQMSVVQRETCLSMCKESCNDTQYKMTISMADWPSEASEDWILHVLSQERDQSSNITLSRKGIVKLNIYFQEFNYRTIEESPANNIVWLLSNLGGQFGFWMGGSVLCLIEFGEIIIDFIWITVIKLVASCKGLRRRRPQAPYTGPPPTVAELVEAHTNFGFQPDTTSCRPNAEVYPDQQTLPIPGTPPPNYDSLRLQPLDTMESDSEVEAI
# T1 sequence (P37091 1-650): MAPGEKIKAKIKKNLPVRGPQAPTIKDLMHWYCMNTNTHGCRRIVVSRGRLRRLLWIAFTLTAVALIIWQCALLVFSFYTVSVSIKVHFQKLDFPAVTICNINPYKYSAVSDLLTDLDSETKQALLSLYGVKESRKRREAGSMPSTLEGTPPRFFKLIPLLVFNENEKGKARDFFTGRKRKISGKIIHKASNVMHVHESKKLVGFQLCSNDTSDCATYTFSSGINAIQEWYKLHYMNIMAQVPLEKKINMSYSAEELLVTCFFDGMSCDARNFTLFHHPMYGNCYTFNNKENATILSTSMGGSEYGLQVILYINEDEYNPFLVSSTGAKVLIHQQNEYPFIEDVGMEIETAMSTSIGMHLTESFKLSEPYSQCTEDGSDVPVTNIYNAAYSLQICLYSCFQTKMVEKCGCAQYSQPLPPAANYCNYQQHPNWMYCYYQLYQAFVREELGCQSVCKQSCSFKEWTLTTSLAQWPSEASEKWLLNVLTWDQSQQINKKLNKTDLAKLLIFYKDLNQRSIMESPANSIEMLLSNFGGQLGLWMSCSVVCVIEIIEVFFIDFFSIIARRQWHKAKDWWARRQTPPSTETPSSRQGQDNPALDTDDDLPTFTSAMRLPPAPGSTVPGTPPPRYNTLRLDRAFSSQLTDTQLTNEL
# B1: SPLUNC1: human SPLUNC1 (SEQ ID NO:1), 256 amino acid secreted PLUNC family protein; rSPLUNC1 is the purified V5/6His-tagged recombinant form (protein, listed as Homo sapiens)
# chain: MFQTGGLIVFYGLLAQTMAQFGGLPVPLDQTLPLNVNPALPLSPTGLAGSLTNALSNGLLSGGLLGILENLPLLDILKPGGGTSGGLLGGLLGKVTSVIPGLNNIIDIKVTDPQLLELGLVQSPDGHRLYVTIPLGIKLQVNTPLVGASLLRLAVKLDITAEILAVRDKQERIHLVLGDCTHSPGSLQISLLDGLGPLPIQGLLDSLTGILNKVLPELVQGNVCPLVNEVLRGLDITLVHDIVNMLIHGLQFVIKV
# modifications: V5/6His tag in recombinant form
# notes: rSPLUNC1 is the purified V5/6His-tagged recombinant form
# Key:
# αβγENaC [1] = target: T1, αβγENaC; experiment: Amiloride-sensitive whole cell current, two electrode voltage clamp, Xenopus laevis oocytes expressing αβγENaC; format: cell-based
# Method: Xenopus laevis oocytes were harvested and injected as described (Donaldson, et al., J. Biol. Chem. 277:8338 (2002)). Defolliculated healthy stage V-VI oocytes were injected with 0.3 ng of CRNA of each ENaC subunit. Injected oocytes were kept in modified Barth's saline (in mM: 88 NaCl, 1 KCl, 2.4 NaHCO3, 0.3 Ca(NO3)2, 0.41 CaCl2, 0.82 MgSO4, and 15 HEPES, adjusted to pH 7.35 with Tris). Oocytes were studied 24 hr after injection using the two electrode voltage clamp technique as previously described (Donaldson, et al., J. Biol. Chem. 277:8338 (2002)). Oocytes were clamped at a holding potential of −60 mV. The change in amiloride-sensitive whole cell current as an indicator of ENaC activity was determined by subtracting the corresponding current value measured in the presence of 10 μM amiloride from that measured before the application of amiloride. Where appropriate, oocytes were incubated with G22-A39 or ABC for 1 h prior to recording. In some experiments β-ENaC^S518C was used which forms ENaCs that are locked into an open probability near 1.0 by exposure to the sulthydral reactive reagent [2-(Trimethyl-ammonium)ethyl]methanethiosulphonate bromide (MTSET). MTSET was added at a concentration of 1 mM to the oocyte bath as previously described (Snyder, J. Clin. Invest. 105: 45 (2000)).
# αβγENaC [2] = target: T1, αβγENaC; experiment: as above; format: cell-based; settings: 100 μM in bath for 2 h; pH 6 vs 7.4
Molecule,"ASL absorption (CF HBECs; 10 μM apical, over 24 h)","CF ASL absorption, paired cultures (CF HBECs; 100 μM SPLUNC1 or S18)",IC50 (CF HBECs; 8 h),"CF ASL hyperabsorption in the presence of activated neutrophil supernatant (CF HBECs; 8 h ASL height, ANS)","CF ASL hyperabsorption in the presence of neutrophil elastase (CF HBECs; 8 h ASL height, neutrophil elastase)","heat stability: inhibition of CF ASL absorption after heating (CF HBECs; peptide heated to 67° C. for 30 min, also with neutrophil elastase)",inhibition of ENaC current by peptide in bath (αβγENaC [1]; 10 μM in oocyte bath for 1 h),effect of N-terminal biotinylation on ability to inhibit ENaC (αβγENaC [1]; n=6),inhibition of amiloride-sensitive ENaC current at pH 6 (αβγENaC [2]),CF ASL volume homeostasis in SPLUNC1 knockdown CF HBECs (CF HBECs; recombinant SPLUNC1 together with POPSO-Ringer),activation of ENaC currents by prostasin (CAP1) and CAP2 (αβγENaC [1]; SPLUNC1 co-expressed),trypsin stimulation of ENaC activity (αβγENaC [1]; SPLUNC1 co-expressed),"inhibition of ENaC by C-terminal truncation mutants (αβγENaC [1]; co-expressed in oocytes, all p<0.0001 where significant)"
GGLPVPLDQTLPLNVNPA [S18],significantly blocked ASL absorption,inhibited CF ASL absorption,600 nM,prevented CF ASL hyperabsorption,prevented CF ASL hyperabsorption,no effect on the ability of S18 to inhibit CF ASL absorption,inhibited ENaC to the same degree as the full length protein; also recorded: inhibits both basal and trypsin-stimulated ENaC current,no effect,still inhibits ENaC,–,–,–,–
B1,–,–,–,–,–,–,–,–,abolished at pH 6,required to restore CF ASL volume homeostasis,significantly reduced,attenuated,Significant inhibition

# From US9127040B2, “Regulation of sodium channels by PLUNC proteins” (The University of North Carolina at Chapel Hill, priority 2011, dated 2015)
